Assay results reported in US10336762B2 (priority 2017, dated 2019).

Columns and labels:
TNFα = assay: cells; assay type: cell-based, human; conditions: Homo sapiens, Monocyte, LPS-stimulated human monocytes, TNFα content; read-out: EC50 TNF
IRAK4 enzyme = IRAK4 enzyme (Homo sapiens (Human), UniProt Q9NWZ3); assay: biochemical; assay type: biochemical; conditions: IRAK4 enzyme, TR-FRET (HTRF), 500 μM ATP
Chain of IRAK4 enzyme (Q9NWZ3 whole entry): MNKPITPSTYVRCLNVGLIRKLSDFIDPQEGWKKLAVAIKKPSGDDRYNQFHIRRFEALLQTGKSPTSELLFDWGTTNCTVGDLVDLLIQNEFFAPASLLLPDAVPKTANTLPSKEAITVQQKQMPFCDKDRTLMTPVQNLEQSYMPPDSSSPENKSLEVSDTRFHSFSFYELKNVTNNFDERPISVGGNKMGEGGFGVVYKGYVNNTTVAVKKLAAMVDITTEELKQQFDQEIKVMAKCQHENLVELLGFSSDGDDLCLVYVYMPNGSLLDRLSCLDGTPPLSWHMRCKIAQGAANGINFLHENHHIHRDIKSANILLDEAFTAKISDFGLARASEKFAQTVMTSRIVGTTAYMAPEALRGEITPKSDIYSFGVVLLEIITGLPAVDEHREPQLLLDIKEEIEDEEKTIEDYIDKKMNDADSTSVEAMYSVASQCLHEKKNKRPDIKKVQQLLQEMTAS

SMILES | EC50 (TNFα) [nM] | IC50 (IRAK4 enzyme) [nM]
CC(C)(O)[C@H](F)CNC(=O)c1cnc(-c2ccc3cc(C#N)cnn23)cc1Nc1ccc(OC(F)F)nc1 [Example 597, (R)-6-(3-cyano-pyrrolo[1,2-b]pyridazin-7-yl)-4-((6-(difluoro-methoxy)pyridin-3-yl)amino)-N-(2-fluoro-3-hydroxy-3-methylbutyl) nicotinamide] | 106 | 1
COc1cc(Nc2cc(-c3ccc4cc(C#N)cnn34)ncc2C(=O)NC[C@@H](F)C(C)(C)O)ccn1 [Example 598, (R)-6-(3-cyano-pyrrolo[1,2-b]pyridazin-7-yl)-N-(2-fluoro-3-hydroxy-3-methyl-butyl)-4-((2-methoxy-pyridin-4-yl)amino) nicotinamide] | 106 | < 1
CC(C)(O)[C@H](F)CNC(=O)c1cnc(-c2ccc3cc(C#N)cnn23)cc1Nc1ccc(F)nc1 [Example 599, (R)-6-(3-cyano-pyrrolo[1,2-b]pyridazin-7-yl)-N-(2-fluoro-3-hydroxy-3-methylbutyl)-4-((6-fluoro-pyridin-3-yl)amino) nicotinamide] | 68 | < 1
CC(C)(O)[C@H](F)CNC(=O)c1cnc(-c2ccc3cc(C#N)cnn23)cc1Nc1cncc(F)c1 [Example 600, (R)-6-(3-cyano-pyrrolo[1,2-b]pyridazin-7-yl)-N-(2-fluoro-3-hydroxy-3-methylbutyl)-4-((5-fluoropyridin-3-yl)amino)nicotinamide] | 72 | < 1
CC(C)(O)[C@H](F)CNC(=O)c1cnc(-c2ccc3cc(C#N)cnn23)cc1Nc1ccc(C(N)=O)nc1 [Example 601, (R)-5-((2-(3-cyano-pyrrolo[1,2-b]pyridazin-7-yl)-5-((2-fluoro-3-hydroxy-3-methylbutyl)carbamoyl)pyridin-4-yl)amino) picolinamide] | 64 | < 1
COc1ccc(Nc2cc(-c3ccc4cc(C#N)cnn34)ncc2C(=O)NC[C@@H](F)C(C)(C)O)cn1 [Example 602, (R)-6-(3-cyanopyrrolo[1,2-b]pyridazin-7-yl)-N-(2-fluoro-3-hydroxy-3-methylbutyl)-4-((6-methoxy-pyridin-3-yl)amino) nicotinamide] | 70 | < 1
CC(C)(O)[C@H](F)CNC(=O)c1cnc(-c2ccc3cc(C#N)cnn23)cc1Nc1ccc(C#N)nc1 [Example 603, (R)-4-((6-cyanopyridin-3-yl)amino)-6-(3-cyano-pyrrolo[1,2-b]pyridazin-7-yl)-N-(2-fluoro-3-hydroxy-3-methylbutyl)nicotinamide] | 81 | 1
COc1cc(Nc2cc(-c3ccc4cc(C#N)cnn34)ncc2C(=O)NC[C@@H](F)C(C)(C)O)ccc1C(N)=O [Example 604, (R)-4-((4-carbamoyl-3-methoxyphenyl)amino)-6-(3-cyanopyrrolo[1,2-b]pyridazin-7-yl)-N-(2-fluoro-3-hydroxy-3-methylbutyl)nicotinamide] | 283 | 7
COc1cncc(Nc2cc(-c3ccc4cc(C#N)cnn34)ncc2C(=O)NC[C@@H](F)C(C)(C)O)c1 [Example 605, (R)-6-(3-cyanopyrrolo[1,2-b]pyridazin-7-yl)-N-(2-fluoro-3-hydroxy-3-methyl-butyl)-4-((5-methoxy-pyridin-3-yl)amino) nicotinamide] | 24 | < 1
COc1cccc(Nc2cc(-c3ccc4cc(C#N)cnn34)ncc2C(=O)NC[C@@H](F)C(C)(C)O)c1 [Example 606, (R)-6-(3-cyanopyrrolo[1,2-b]pyridazin-7-yl)-N-(2-fluoro-3-hydroxy-3-methylbutyl)-4-((3-methoxyphenyl)amino) nicotinamide] | 33 | 1
CC(C)(O)[C@H](F)CNC(=O)c1cnc(-c2ccc3cc(C#N)cnn23)cc1Nc1cccc(OC(F)F)c1 [Example 608, (R)-6-(3-cyanopyrrolo[1,2-b]pyridazin-7-yl)-4-((3-(difluoromethoxy)phenyl)amino)-N-(2-fluoro-3-hydroxy-3-methylbutyl) nicotinamide] | 123 | 1
